In one test the test system is Nanog gene. Briefly: Nanog gene expression level by real time PCR (ES cell differentiation inhibition assay 3). It is filed as cell-based, mouse. Conditions: D3ES cells, 4 μg/mL, 1 day, GAPDH internal standard, FIG. 7. Here is the method: For the D3ES cells prepared by the method described in (3) preparation of a mouse ES cell of Example 1, 7.85×10^5 cells were seeded in a 10 cm-diameter cell culture dish coated previously with a 0.1% aqueous gelatin solution to make 10 mL of the ES cell assay medium. The differentiation inhibiting agent B of the present invention in the final concentration of 4 μg/mL or ESGRO in the final concentration of 1×10^3 unit/mL was added to each dish, and culturing was carried out at 37° C. in 5% CO2 incubator for 1 day.
The total RNA was extracted from the ES cell cultured by the method shown in (3) ES cell differentiation inhibition assay 3 as described above by using ISOGEN (K.K. Nippon Gene Corp. Japan made) by the attached method. In this method, the cell was collected in a 15 mL sterilized tube, centrifuged at 1,000 rpm for about 5 minutes by using the table centrifuge (TOMY SEIKO made) to make pellets. The supernatant was removed, the pellets were washed twice with 10 mL of PBS, and then, transferred to a 1.5 mL Eppendorf tube. The pellets were dissolved in 1 ml ISOGENE and left stand at room temperature for 5 minutes and, then, added with 0.2 mL of chloroform (Wako Pure Chemicals), shaken for 15 seconds, and left stand at room temperature for 2 or 3 minutes. Centrifugation was carried out at 4° C. at 10,000 rpm for 15 minutes by using the micro centrifuge (TOMY SEIKO made), 400 μL of the supernatant was transferred to a fresh 1.5 mL Eppendorf tube. 500 μL of isopropanol (Wako Pure Chemicals) was added and the mixture was left stand at room temperature for 10 minutes and, then, was centrifuged at 4° C. at 10,000 rpm for 10 minutes by using the micro centrifuge. The supernatant was removed and, then, 1 mL of a 70% ethanol aqueous solution was added. The mixture was shaken and then was centrifuged at 4° C. at 10,000 rpm for about 5 minutes by using the micro centrifuge. The supernatant was removed and the precipitation was dried and, then, dissolved in 30 μL of distilled water to obtain the total RNA solution.
The cDNA was synthesized by using 2 μg of the total RNA obtained by such the way as the template, using DeoxyribonucleaseI (Amplification Grade) (Invitrogen Corp. made) and SuperScript III First-Strand Synthesis System for RT-PCR (Invitrogen Corp. made, 18080-051) by the attached protocol. In this step, 1 μL of 10× DNaseI Reaction Buffer, 1 μL of 10× DNaseI (all these were of Invitrogen Corp. made) were added to 2 μg of the total RNA to give the total volume of 10 μL by adding distilled water to prepare the reaction solution, and then incubation was carried out at room temperature for 10 minutes. 1 μL of 25 mM EDTA solution was added, and the mixture was heated at 65° C. for 10 minutes and then, cooled to room temperature. 8 μL of the reaction solution was taken out, and 1 μL of […] Oligo(dT) 20 primer and 1 μL of 10 mM dNTP Mix were added, and incubation was carried out at 65° C. for 5 minutes. The reaction solution was placed on ice for 1 minute, and then 2 μL of 10× RT Buffer, 4 μL of 25 mM MgCl2, 2 μL of 0.1 M DTT, 1 μL of RNaseOUT (Invitrogen Corp. made) and 1 μL of SuperScript III RT were added for incubation at 50° C. for 50 minutes. Subsequently, incubation was carried out at 85° C. for 5 minutes, and then the mixture was left stand on ice for 1 min. […] The expression level of the Nanog gene and the glyceraldehyde-3-phosphate dehydrogenase (GAPDH) gene as the internal standard were measured. […]
For orientation: Real-time PCR tracks product formation cycle by cycle.

In another test the test system is Oct-3/4 gene. Briefly: Oct-3/4 gene expression level by real time PCR (ES cell differentiation inhibition assay 2). It is filed as cell-based, mouse. Conditions: D3ES cells, 7 days. Here is the method: For the D3ES cells prepared by the method described in (3) preparation of a mouse ES cell of Example 1, 8×10^4 cells were seeded in a 10 cm-diameter cell culture dish coated previously with a 0.1% aqueous gelatin solution to make 10 mL of the ES cell assay medium. 1 mL of the differentiation inhibiting agent A to F, which were dissolved in dimethylsulfoxide (DMSO) or culture medium or their mixture to make 40 μg/mL per each dish, or ESGRO, which was adjusted to make 10^4 unit/mL, was added, and culturing was carried out at 37° C. in 5% […] incubator for 7 days. To the culture medium was added DMSO to make the final concentration 0.1% or lower.
A total RNA was extracted from the ES cells cultured by the method described in (1) ES cell differentiation inhibition assay 2 as described above, by using ISOGEN (K.K. Nippon Gene, Japan made) by the attached method. First, the medium was removed from the dish after the culture, the cells were washed twice with 10 mL of PBS, and dissolved in 1 mL of ISOGENE. After leaving stand at room temperature for 5 minutes, the solution was collected in a 1.5 mL Eppendorf tube. 0.2 mL of chloroform (Wako Pure Chemical Industries made) was added, shaken for 15 seconds and, then, left stand at room temperature for 2 or 3 minutes. The solution was centrifuged at 4° C. at 10000 rpm for 10 minutes by using a micro centrifuge (TOMY SEIKO Corp. made). 400 μL of the supernatant was transferred to a fresh 1.5 mL Eppendorf tube, 500 μL of isopropanol (Wako Pure, Chemical Industries made) was added, and left stand at room temperature for 10 minutes, and, then, centrifuged at 4° C. at 10000 rpm for 10 minutes by using the micro centrifuge. After the supernatant was removed, 1 mL of a 70% aqueous ethanol solution was added followed by shaking and, then, centrifugation was carried out at 4° C. at 10000 rpm for about 5 minutes by using, the micro centrifuge. After the supernatant was removed, a precipitation was dried and dissolved in 30 μL of distilled water to obtain the total RNA solution.
2 μg of the thus obtained total RNA was used as a template to synthesize a cDNA according to the attached protocol by using Deoxyribonuclease I (Amplification Grade)(Invitrogen Corp. made), Oligo(dT) 12-18 primer (Invitrogen Corp. made, 18418-012) and Omniscript reverse transcriptase (QIAGEN Corp, made). Thus, a reaction solution was prepared by adding 1 μL of 10× DNaseI Reaction Buffer, 1 μL of 10× DNaseI (all were made by Invitrogen Corp.) and distilled water to 2 μg of total RNA to make 10 μL in total, and the mixture was incubated at room temperature for 10 minutes. 1 μL of 25 mM EDTA solution was added and heated at 65° C. for 10 minutes. The mixture was cooled to room temperature, and then, 2 μL of 10× Buffer RT, 2 μL of 5 mM dNTP Mix, 2 μL of Oligo(dT) 12-18 primer, 0.25 μL of RNaseOUT (Invitrogen Corp. made, 10777-019) and 1 μL of Omniscript Reverse Transcriptase were added, and RNase-free purified water was added to give the total volume of 20 μL, and the mixture was incubated at 37° C. for 60 minutes to obtain cDNA solution. A portion of the synthesized cDNA obtained in such the way was diluted 5 folds with distilled water, and 2 μL of the solution was used as the template to conduct PCR by using Light Cycler-Fast Start DNA Master SYBR Green I Kit (Roche Diagnostics Corp. made) according to the attached protocol. The expression levels of the Oct-3/4 gene and glyceraldehyde-3-phosphate dehydrogenase (GAPDH) gene as the internal standard were measured. For amplifying the Oct-3/4 gene, sense primer OCT3 up (SEQ ID No.: 1) and antisense primer Oct3 down (SEQ ID No.: 2) were used, and for amplifying the GAPDH gene, sense primer GAPDH up (SEQ ID No.: 3) and antisense primer GAPDH down (SEQ ID No.: 4) were used. The composition of the PCR reaction solution and the reaction condition will be each presented below.

In the case of `COc1cccc(N=NC(C(N)=O)=C2NC(C)(C)Cc3ccccc32)c1` [D, 2-(3,3-dimethyl-3,4-dihydro-2H-isoquinoline-1-ylidene)-2-(3-methoxy-phenylazo)-acetamide], in the test on Nanog gene, the “expression level of Nanog gene in comparison with medium without agent and medium containing 1,000 units/mL of ESGRO” value is reported as “increased similarly to the differentiation inhibiting agents B”. Moreover, the “expression of Oct-3/4 gene in comparison with ES cells cultured in the medium without the differentiation inhibiting agent” value with Oct-3/4 gene (GAPDH internal standard, FIG. 6) is reported as “significantly promoted”. Further, in the test on Oct-3/4 gene (compared with 1,000 units/mL of ESGRO), the “effect of keeping the expression of the Oct-3/4 gene relative to ESGRO” value was “comparable with 1,000 units/mL of ESGRO”.

The values above are taken from US8883504B2, “Cell differentiation suppressing agent, method of culturing cells using the same, culture solution, and cultured cell line” (Asahi Kasei Kabushiki Kaisha, priority 2003, dated 2014).
